Reference: ChEMBL document CHEMBL3769377, “A synthesis, in silico, in vitro and in vivo study of thieno[2,3-b]pyridine anticancer analogues” (Medchemcomm, 2015)

How the values were obtained:
[1] = biological target: ALK tyrosine kinase receptor (Homo sapiens) (UniProt Q9UM73); test: Inhibition of human recombinant ALK assessed as residual activity at 10 uM after 1 hr by qPCR analysis relative to control
[2] = biological target: RAC-beta serine/threonine-protein kinase (Homo sapiens) (UniProt P31751); test: Inhibition of human recombinant AKT2 assessed as residual activity at 10 uM after 1 hr by qPCR analysis relative to control
[3] = biological target: Cyclin-dependent kinase 11B (Homo sapiens) (UniProt P21127); test: Inhibition of human recombinant CDK11 assessed as residual activity at 10 uM after 1 hr by qPCR analysis relative to control
[4] = biological target: Mitogen-activated protein kinase kinase kinase 4 (Homo sapiens) (UniProt Q9Y6R4); test: Inhibition of human recombinant MAP3K4 assessed as residual activity at 10 uM after 1 hr by qPCR analysis relative to control
[5] = biological target: Tyrosine-protein kinase BTK (Homo sapiens) (UniProt Q06187); test: Inhibition of human recombinant BTK assessed as residual activity at 10 uM after 1 hr by qPCR analysis relative to control
[6] = biological target: Bone morphogenetic protein receptor type-2 (Homo sapiens) (UniProt Q13873); test: Inhibition of human recombinant BMPR2 assessed as residual activity at 10 uM after 1 hr by qPCR analysis relative to control
[7] = biological target: cAMP-dependent protein kinase catalytic subunit alpha (Homo sapiens) (UniProt P17612); test: Inhibition of human recombinant PKACalpha assessed as residual activity at 10 uM after 1 hr by qPCR analysis relative to control
[8] = biological target: Serine/threonine-protein kinase DCLK1 (Homo sapiens) (UniProt O15075); test: Inhibition of human recombinant DCAMKL1 assessed as residual activity at 10 uM after 1 hr by qPCR analysis relative to control
[9] = biological target: Macrophage colony-stimulating factor 1 receptor (Homo sapiens) (UniProt P07333); test: Inhibition of human recombinant CSF1R assessed as residual activity at 10 uM after 1 hr by qPCR analysis relative to control
[10] = system: Mus musculus; test: Toxicity in athymic nude/beige mouse xenografted with human 786-O cells assessed as dark circles around eyes at 0.16 mg/kg, ip qd after 24 days; type: organism-based, 786-0; conditions: in vivo, 576 h
[11] = biological target: RAC-alpha serine/threonine-protein kinase (Homo sapiens) (UniProt P31749); test: Inhibition of human recombinant AKT1 assessed as residual activity at 10 uM after 1 hr by qPCR analysis relative to control
[12] = biological target: High affinity nerve growth factor receptor (Homo sapiens) (UniProt P04629); test: Inhibition of human recombinant TRKA assessed as residual activity at 10 uM after 1 hr by qPCR analysis relative to control
[13] = biological target: Mitogen-activated protein kinase 11 (Homo sapiens) (UniProt Q15759); test: Inhibition of human recombinant p38beta assessed as residual activity at 10 uM after 1 hr by qPCR analysis relative to control
[14] = biological target: Testis-specific serine/threonine-protein kinase 1 (Homo sapiens) (UniProt Q9BXA7); test: Inhibition of human recombinant TSSK1B assessed as residual activity at 10 uM after 1 hr by qPCR analysis relative to control
Testis-specific serine/threonine-protein kinase 1 (Homo sapiens), sequence (Q9BXA7 whole entry): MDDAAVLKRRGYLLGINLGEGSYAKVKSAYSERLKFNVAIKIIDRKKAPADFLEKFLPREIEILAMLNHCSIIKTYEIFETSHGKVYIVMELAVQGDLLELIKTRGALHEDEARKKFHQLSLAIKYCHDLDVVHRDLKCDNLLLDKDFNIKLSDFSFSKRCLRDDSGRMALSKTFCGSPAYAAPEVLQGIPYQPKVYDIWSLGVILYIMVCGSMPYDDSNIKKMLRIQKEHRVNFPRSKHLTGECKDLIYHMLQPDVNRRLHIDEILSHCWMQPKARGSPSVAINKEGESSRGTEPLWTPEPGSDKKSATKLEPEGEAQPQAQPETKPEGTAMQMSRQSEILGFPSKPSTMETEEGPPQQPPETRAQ

[15] = system: Serine/threonine-protein kinase B-raf (Homo sapiens), P15056 [V600E]; test: Inhibition of human recombinant BRAF V600E mutant assessed as residual activity at 10 uM after 1 hr by qPCR analysis relative to control
[16] = biological target: Serine/threonine-protein kinase Chk1 (Homo sapiens) (UniProt O14757); test: Inhibition of human recombinant CHEK1 assessed as residual activity at 10 uM after 1 hr by qPCR analysis relative to control
Serine/threonine-protein kinase Chk1 (Homo sapiens), sequence (O14757 whole entry): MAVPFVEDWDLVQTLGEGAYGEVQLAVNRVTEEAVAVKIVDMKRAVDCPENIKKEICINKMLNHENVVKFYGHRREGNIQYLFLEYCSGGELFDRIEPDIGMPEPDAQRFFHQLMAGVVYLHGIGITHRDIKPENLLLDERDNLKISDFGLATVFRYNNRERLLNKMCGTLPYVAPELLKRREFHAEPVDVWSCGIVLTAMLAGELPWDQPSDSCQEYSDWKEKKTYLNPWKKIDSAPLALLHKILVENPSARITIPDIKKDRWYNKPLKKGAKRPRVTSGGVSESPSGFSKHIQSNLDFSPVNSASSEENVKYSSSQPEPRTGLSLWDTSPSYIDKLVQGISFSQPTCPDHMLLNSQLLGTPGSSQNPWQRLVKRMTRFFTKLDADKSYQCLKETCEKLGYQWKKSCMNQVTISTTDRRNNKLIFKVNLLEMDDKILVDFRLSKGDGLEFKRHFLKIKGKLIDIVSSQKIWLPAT

[17] = biological target: Fibroblast growth factor receptor 2 (Homo sapiens) (UniProt P21802); test: Inhibition of human recombinant FGFR2 assessed as residual activity at 10 uM after 1 hr by qPCR analysis relative to control
[18] = biological target: Inhibitor of nuclear factor kappa-B kinase subunit alpha (Homo sapiens) (UniProt O15111); test: Inhibition of human recombinant IKKalpha assessed as residual activity at 10 uM after 1 hr by qPCR analysis relative to control
Inhibitor of nuclear factor kappa-B kinase subunit alpha (Homo sapiens), sequence (O15111 whole entry): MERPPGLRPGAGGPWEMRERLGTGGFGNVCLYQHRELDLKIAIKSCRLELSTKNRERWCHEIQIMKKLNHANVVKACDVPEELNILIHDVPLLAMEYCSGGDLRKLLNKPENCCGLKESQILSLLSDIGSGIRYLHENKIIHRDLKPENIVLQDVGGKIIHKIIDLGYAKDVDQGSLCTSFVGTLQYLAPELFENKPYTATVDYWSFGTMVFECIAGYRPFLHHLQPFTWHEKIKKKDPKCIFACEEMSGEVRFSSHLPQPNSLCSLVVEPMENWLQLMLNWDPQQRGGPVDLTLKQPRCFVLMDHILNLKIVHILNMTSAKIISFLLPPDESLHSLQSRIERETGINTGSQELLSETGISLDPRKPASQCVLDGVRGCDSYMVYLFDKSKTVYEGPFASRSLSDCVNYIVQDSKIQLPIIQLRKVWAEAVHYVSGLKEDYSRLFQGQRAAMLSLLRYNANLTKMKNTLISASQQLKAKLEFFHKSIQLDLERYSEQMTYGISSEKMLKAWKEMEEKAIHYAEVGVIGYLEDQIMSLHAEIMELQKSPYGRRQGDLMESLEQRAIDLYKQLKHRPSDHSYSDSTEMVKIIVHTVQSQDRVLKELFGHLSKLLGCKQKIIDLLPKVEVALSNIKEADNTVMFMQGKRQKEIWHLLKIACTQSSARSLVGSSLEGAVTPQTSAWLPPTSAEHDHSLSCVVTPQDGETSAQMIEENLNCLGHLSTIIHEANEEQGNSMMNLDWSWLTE

[19] = system: Tyrosine-protein kinase ABL1 (Homo sapiens), P00519 [T315I]; test: Inhibition of human recombinant phosphorylated ABL1 T315I mutant assessed as residual activity at 10 uM after 1 hr by qPCR analysis relative to control
[20] = biological target: MAP kinase-interacting serine/threonine-protein kinase 2 (Homo sapiens) (UniProt Q9HBH9); test: Inhibition of human recombinant MKNK2 assessed as residual activity at 10 uM after 1 hr by qPCR analysis relative to control
[21] = biological target: Protein kinase C epsilon type (Homo sapiens) (UniProt Q02156); test: Inhibition of human recombinant PRKCE assessed as residual activity at 10 uM after 1 hr by qPCR analysis relative to control
Protein kinase C epsilon type (Homo sapiens), sequence (Q02156 whole entry): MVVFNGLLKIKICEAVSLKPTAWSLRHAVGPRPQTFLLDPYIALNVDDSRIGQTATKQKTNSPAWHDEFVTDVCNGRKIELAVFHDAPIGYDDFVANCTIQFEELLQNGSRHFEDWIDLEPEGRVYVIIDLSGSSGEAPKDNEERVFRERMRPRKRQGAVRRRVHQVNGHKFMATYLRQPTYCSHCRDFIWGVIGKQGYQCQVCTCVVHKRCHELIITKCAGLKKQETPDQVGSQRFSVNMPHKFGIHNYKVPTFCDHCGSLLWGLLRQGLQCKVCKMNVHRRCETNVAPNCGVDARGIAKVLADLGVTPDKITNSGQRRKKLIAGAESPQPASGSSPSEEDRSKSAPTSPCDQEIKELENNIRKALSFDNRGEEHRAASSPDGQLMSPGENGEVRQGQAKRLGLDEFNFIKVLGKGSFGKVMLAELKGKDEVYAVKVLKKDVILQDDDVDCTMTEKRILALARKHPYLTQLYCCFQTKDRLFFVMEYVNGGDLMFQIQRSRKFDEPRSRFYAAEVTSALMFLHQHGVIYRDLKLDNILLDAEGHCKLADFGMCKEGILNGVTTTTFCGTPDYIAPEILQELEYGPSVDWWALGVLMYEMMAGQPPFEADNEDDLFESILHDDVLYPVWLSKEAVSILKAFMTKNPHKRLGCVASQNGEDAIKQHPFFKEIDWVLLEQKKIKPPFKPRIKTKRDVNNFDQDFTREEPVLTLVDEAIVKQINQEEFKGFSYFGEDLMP

[22] = biological target: Mitogen-activated protein kinase 3 (Homo sapiens) (UniProt P27361); test: Inhibition of human recombinant ERK1 assessed as residual activity at 10 uM after 1 hr by qPCR analysis relative to control
Mitogen-activated protein kinase 3 (Homo sapiens), sequence (P27361 whole entry, the tested form may be a part): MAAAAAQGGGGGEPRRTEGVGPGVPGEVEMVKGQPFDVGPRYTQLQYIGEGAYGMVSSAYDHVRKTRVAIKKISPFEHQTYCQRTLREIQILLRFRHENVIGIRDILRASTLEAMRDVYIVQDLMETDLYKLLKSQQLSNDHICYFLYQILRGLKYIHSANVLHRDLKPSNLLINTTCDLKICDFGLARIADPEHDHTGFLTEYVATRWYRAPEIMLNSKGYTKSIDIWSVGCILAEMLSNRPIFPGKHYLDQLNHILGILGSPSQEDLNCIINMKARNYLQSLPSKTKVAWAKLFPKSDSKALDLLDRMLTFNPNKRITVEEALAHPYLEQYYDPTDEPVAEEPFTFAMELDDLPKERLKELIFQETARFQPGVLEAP

[23] = biological target: Phosphatidylinositol 4-phosphate 3-kinase C2 domain-containing subunit beta (Homo sapiens) (UniProt O00750); test: Inhibition of human recombinant PIK3C2B assessed as residual activity at 10 uM after 1 hr by qPCR analysis relative to control
[24] = biological target: MAP kinase-interacting serine/threonine-protein kinase 1 (Homo sapiens) (UniProt Q9BUB5); test: Inhibition of human recombinant MKNK1 assessed as residual activity at 10 uM after 1 hr by qPCR analysis relative to control
MAP kinase-interacting serine/threonine-protein kinase 1 (Homo sapiens), sequence (Q9BUB5 whole entry, looked up): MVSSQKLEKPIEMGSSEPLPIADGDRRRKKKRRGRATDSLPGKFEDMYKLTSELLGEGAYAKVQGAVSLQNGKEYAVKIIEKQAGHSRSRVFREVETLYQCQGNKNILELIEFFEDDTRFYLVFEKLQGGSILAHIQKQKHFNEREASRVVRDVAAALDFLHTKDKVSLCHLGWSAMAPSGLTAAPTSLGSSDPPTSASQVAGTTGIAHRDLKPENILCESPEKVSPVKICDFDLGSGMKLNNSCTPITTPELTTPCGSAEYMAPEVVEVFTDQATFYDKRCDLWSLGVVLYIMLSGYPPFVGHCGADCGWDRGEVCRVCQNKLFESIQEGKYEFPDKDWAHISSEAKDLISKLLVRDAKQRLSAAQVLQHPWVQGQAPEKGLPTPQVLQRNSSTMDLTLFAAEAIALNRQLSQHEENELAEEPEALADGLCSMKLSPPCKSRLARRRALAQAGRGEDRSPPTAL

[25] = biological target: Mast/stem cell growth factor receptor Kit (Homo sapiens) (UniProt P10721); test: Inhibition of human recombinant KIT assessed as residual activity at 10 uM after 1 hr by qPCR analysis relative to control
[26] = biological target: Non-receptor tyrosine-protein kinase TYK2 (Homo sapiens) (UniProt P29597); test: Inhibition of human recombinant TYK2 (JH1 domain-catalytic) assessed as residual activity at 10 uM after 1 hr by qPCR analysis relative to control
[27] = biological target: Angiopoietin-1 receptor (Homo sapiens) (UniProt Q02763); test: Inhibition of human recombinant TIE2 assessed as residual activity at 10 uM after 1 hr by qPCR analysis relative to control
[28] = biological target: RAF proto-oncogene serine/threonine-protein kinase (Homo sapiens) (UniProt P04049); test: Inhibition of human recombinant RAF1 assessed as residual activity at 10 uM after 1 hr by qPCR analysis relative to control
[29] = biological target: MAP kinase-activated protein kinase 2 (Homo sapiens) (UniProt P49137); test: Inhibition of human recombinant MAPKAPK2 assessed as residual activity at 10 uM after 1 hr by qPCR analysis relative to control
[30] = biological target: Ephrin type-A receptor 2 (Homo sapiens) (UniProt P29317); test: Inhibition of human recombinant EPHA2 assessed as residual activity at 10 uM after 1 hr by qPCR analysis relative to control

ALK tyrosine kinase receptor (Homo sapiens), sequence (Q9UM73 19-1620 limits assumed): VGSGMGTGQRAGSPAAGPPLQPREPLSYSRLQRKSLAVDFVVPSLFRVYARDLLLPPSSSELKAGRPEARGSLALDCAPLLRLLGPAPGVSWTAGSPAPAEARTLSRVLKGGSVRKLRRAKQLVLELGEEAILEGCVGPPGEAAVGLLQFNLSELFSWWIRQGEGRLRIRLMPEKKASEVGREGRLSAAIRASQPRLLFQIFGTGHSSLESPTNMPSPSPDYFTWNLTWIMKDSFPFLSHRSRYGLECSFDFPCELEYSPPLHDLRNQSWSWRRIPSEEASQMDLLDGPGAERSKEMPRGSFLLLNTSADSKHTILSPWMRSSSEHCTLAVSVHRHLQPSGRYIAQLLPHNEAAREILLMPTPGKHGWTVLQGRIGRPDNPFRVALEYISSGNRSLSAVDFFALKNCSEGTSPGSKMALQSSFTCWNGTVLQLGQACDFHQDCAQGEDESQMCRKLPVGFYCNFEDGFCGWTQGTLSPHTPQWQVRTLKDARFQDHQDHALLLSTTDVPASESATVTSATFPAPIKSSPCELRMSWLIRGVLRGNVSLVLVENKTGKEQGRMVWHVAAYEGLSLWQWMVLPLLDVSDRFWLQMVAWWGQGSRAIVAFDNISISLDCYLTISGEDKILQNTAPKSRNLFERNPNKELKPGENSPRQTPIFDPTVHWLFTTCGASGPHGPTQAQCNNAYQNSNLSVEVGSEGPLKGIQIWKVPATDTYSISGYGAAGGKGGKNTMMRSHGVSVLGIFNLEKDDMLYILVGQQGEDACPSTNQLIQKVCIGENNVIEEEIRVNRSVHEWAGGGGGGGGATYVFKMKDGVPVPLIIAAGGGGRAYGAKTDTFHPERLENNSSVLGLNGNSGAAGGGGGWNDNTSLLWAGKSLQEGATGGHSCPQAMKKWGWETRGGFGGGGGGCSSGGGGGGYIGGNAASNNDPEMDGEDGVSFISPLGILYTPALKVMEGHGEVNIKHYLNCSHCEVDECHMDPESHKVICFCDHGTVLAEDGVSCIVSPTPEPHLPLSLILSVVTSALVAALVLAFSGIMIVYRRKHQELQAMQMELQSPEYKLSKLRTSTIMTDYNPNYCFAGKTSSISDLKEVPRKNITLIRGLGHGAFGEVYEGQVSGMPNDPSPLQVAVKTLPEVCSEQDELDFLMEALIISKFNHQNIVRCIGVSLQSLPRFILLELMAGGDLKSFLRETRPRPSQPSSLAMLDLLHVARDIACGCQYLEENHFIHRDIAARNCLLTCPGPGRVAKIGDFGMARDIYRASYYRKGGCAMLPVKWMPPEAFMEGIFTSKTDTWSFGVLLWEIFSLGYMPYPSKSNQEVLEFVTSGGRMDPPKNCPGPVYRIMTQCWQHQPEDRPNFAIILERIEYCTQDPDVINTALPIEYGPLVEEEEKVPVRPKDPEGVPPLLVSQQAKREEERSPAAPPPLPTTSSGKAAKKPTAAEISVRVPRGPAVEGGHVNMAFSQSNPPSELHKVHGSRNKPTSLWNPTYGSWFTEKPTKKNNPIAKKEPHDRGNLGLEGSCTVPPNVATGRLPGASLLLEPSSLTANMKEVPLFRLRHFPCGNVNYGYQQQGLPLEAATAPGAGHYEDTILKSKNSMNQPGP

Which results are given for `Cc1c(Cl)cccc1NC(=O)c1sc2nc3c(cc2c1N)C(=O)CC3`?
Activity [1]: 100%; Activity [2]: 72%; Activity [3]: 100%; Activity [4]: 96%; Activity [5]: 100%; Activity [6]: 96%; Activity [7]: 94%; Activity [8]: 100%; Activity [9]: 100%; Activity [10]: Toxic; Activity [11]: 90%; Activity [12]: 84%; Activity [13]: 100%; Activity [14]: 65%; Activity [15]: 90%; Activity [16]: 94%; Activity [17]: 100%; Activity [18]: 100%; Activity [19]: 90%; Activity [20]: 91%; Activity [21]: 100%; Activity [22]: 98%; Activity [23]: 100%; Activity [24]: 100%; Activity [25]: 95%; Activity [26]: 94%; Activity [27]: 100%; Activity [28]: 100%; Activity [29]: 100%; Activity [30]: 100%
